# Results: US9018244B2, “Benzopyran compounds, compositions and uses thereof” (Olema Pharmaceuticals, Inc., priority 2011, dated 2015)
# What was measured:
# [1] = tested on: rodent uterus, human uterine cells; conditions: cited from earlier work
# [2] = tested on: human MCF-7 breast cancer cells; assay: E2-stimulated proliferation of MCF-7 breast cancer cells; type: cell-based; conditions: MCF-7 cells, 100 pM E2, 6-8 days
# Experimental: FIG. 11. […] A) OP-1074 had similar potency to model anti-estrogens in inhibiting E2-stimulated proliferation of breast cells in vitro. MCF-7 cells were treated with anti-estrogens in hormone-depleted medium for 6-8 days in the presence of 100 pM E2. Proliferation was measured using Cyquant fluorescent DNA-binding dye (Invitrogen, Grand Island, N.Y.). Results were from a single representative experiment and reported as the mean percent induction relative to E2 from triplicate treatments, with error bars representing SEM. […] Results were from a single representative experiment and reported as the mean percent induction relative to E2 from triplicate treatments, with error bars representing SEM. IC50's were calculated using the least squares fit method.
# Proliferation in MCF-7 was measured using a fluorescent DNA binding dye 6-8 days after treatment in triplicate with anti-estrogens in the presence of 100 pM E2 and as described in the legend to, and depicted in FIG. 11.
# [3] = tested on: E2-stimulated AP activity in ECC-1 cells; assay: Inhibition of E2-stimulated AP activity in ECC-1 cells (antagonist mode); type: cell-based, human; conditions: in the presence of 500 pM E2
# Description: FIG. 2. Alkaline phosphatase (AP) activity in ECC-1 cells correlates with the uterine wet weight of ovariectomized rats, as reported previously in Scafonas, et al. (*; Scafonas et al. “Agonist-like SERM effects on ER alpha-mediated repression of MMPI promoter activity predict in vivo effects on bone and uterus. J Steroid Biochem Mol. Biol. 2008 110(3-5):197-206) and Labrie, et al. (†; Labrie et al. “The combination of a novel selective estrogen receptor modulator with an estrogen protects the mammary gland and uterus in a rodent model: the future of postmenopausal women's health?” Endocrinology. 2003 144(11):4700-6). ECC-1 cells were treated with 500 pM 17β-estradiol (E2) or 1-5 nM anti-estrogens in hormone-depleted medium for 3 days. Note that the racemic mixture of acolbifene, EM-343, was used in the in vitro AP assay. AP activity was measured by incubating a chromogenic AP substrate, p-nitrophenyl phosphate, at 40° C. for 40 minutes followed by measuring the absorbance at 405 nm. Results were from a single representative experiment and reported as the mean percent induction relative to E2 from triplicate treatments, with error bars representing SEM.
# FIG. 6. […] A) Comparison of inhibition of E2-stimulated AP activity of various benzopyran compounds (right) compared to published reference compounds (left). ECC-1 cells were treated with 100 nM anti-estrogens in the presence of 500 pM E2 and AP activity was measured as described in FIG. 2. Note that OP-1038 was statistically different from EM-343 and Gauthier compound Ia (p<0.0001 (exact p values stated in graph), calculated using Student's t-test). Results were from a single representative experiment and reported as the mean percent induction relative to E2 from triplicate treatments, with error bars representing SEM. […] IC50's were calculated using the least squares fit method. *Aragon Compound 28 was statistically different from equivalent dose of OP-1038 (p≦0.01, calculated using Student's t-test). […]
# Method for performing the alkaline phosphatase (AP) assay. […] Absorbance was read at 405 nm using a plate spectophotometer. […]
# [4] = tested on: E2-stimulated estrogen response element (ERE)-regulated reporter gene activity; assay: ERE-tk109-Luc reporter gene assay in MCF-7 cells; type: cell-based, human; conditions: 100 pM E2, 18-22 hours
# Experimental: FIG. 10. […] A) OP-1074 had similar potency to model anti-estrogens in the ERE reporter gene assay. MCF-7 cells were transiently transfected with ERE-tk109-Luc and treated with anti-estrogens in hormone-depleted medium in the presence of 100 pM E2 for 22 hours. Results were from a single representative experiment and reported as the mean percent induction relative to E2 from triplicate treatments, with error bars representing SEM. […] Results were from a single representative experiment and reported as the mean percent induction relative to E2 from triplicate treatments, with error bars representing SEM. IC50's were calculated using the least squares fit method.
# Compounds of invention are tested for their inhibitory activity of estrogen according to the assay methods described in Hodges-Gallagher, L., Valentine, C. V., El Bader, S. and Kushner, P. J. (2007) “Histone Deacetylase Inhibitors Enhance the Efficacy of Hormonal Therapy Agents on Breast Cancer Cells and Blocks Anti-estrogen-Driven Uterine Cell Proliferation” Breast Cancer Res Treat, November; 105(3):297-309. Specifically, an estrogen-responsive reporter gene (ERE-tk109-Luc) was transiently transfected into MCF-7 cells and treated with anti-estrogens in triplicate in the presence of 100 pM 17β-estradiol (E2) for 18-22 hours. Luciferase activity was normalized to activity of E2 alone and IC50's were calculated using the least squares fit method. This method is also described in legend for FIG. 10.
# [5] = molecular target: T1, estrogen receptor alpha (ERα) (Homo sapiens, UniProt P03372); assay: ERα expression by immunoblot after anti-estrogen treatment; type: cell-based; conditions: 100 nM anti-estrogen, 22-24 hours, serum-free medium; MCF-7 breast cells and ECC-1 endometrial cells
# T1 construct: endogenous in cells
# T1 sequence (P03372 1-595): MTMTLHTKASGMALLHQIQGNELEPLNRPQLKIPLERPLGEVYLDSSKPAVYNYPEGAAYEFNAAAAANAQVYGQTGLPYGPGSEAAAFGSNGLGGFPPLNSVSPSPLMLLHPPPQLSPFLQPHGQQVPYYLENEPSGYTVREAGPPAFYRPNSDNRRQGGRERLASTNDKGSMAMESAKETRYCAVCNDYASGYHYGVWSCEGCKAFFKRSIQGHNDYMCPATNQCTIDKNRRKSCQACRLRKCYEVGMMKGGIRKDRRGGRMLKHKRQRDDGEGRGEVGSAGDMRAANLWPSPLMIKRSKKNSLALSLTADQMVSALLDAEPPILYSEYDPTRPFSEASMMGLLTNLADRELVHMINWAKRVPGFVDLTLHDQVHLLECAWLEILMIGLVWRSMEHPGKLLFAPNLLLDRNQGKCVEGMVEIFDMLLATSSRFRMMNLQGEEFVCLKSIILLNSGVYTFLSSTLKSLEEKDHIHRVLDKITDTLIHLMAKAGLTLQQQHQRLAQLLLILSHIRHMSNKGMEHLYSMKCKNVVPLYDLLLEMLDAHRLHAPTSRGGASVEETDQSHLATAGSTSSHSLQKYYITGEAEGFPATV
# Experimental: FIG. 12. […] A) ERα levels in breast cells after treatment with OP-1074 compared to treatment with model anti-estrogens. MCF-7 cells were treated with 100 nM anti-estrogen for 24 hours in serum-free medium and protein extracts immunoblotted with an antibody to ERα (D12, Santa Cruz Biotechnology, Santa Cruz, Calif.). Image is from a single representative experiment and number on top denotes the mean percent ERα expression relative to vehicle from quadruplicate treatments. B) OP-1038 induces degradation of ERα in both MCF-7 breast cells and ECC-1 endometrial cells.
# ERα expression was detected in MCF-7 cell lysates treated with 100 nM anti-estrogens in serum-free medium for 22-24 hours and immunoblotted with an antibody specific to ERα as described in the legend to, and depicted in FIG. 12.
# [6] = daily oral dose of 40 mg in women; cited from earlier work
compound,measurement,setting,value
CC12CCC3c4ccc(O)cc4CC(CCCCCCCCC[S+]([O-])CCCC(F)(F)C(F)(F)F)C3C1CCC2O (stereo not shown) [fulvestrant],Residual estrogen-like action relative to estradiol,[1],almost unmeasurable
"CC1=C(c2ccc(O)cc2)[C@@H](c2ccc(OCCN3CC[C@@H](C)C3)cc2)Oc2cc(O)ccc21 [OP-1075, (2R)-3-(4-hydroxyphenyl)-4-methyl-2-(4-{2-[(3R)-3-methylpyrrolidin-1-yl]ethoxy}phenyl)-2H-chromen-7-ol]",Antagonism of E2-stimulated proliferation,[2],reduced activity
same,Inhibition of E2-stimulated AP activity,[3],reduced activity
same,Antagonism of E2-stimulated ERE-regulated reporter gene activity,[4],reduced activity
same,Degradation of ERα,[5],degrade the receptor
CC1=C(c2ccc(OC(=O)C(C)(C)C)cc2)[C@H](c2ccc(OCCN3CCCCC3)cc2)Oc2cc(OC(=O)C(C)(C)C)ccc21 [EM800],Mean drug exposure of circulating acolbifene,[6],15 ng/mL
"CC1=C(c2ccc(O)cc2)[C@H](c2ccc(OCCN3CCCCC3)cc2)Oc2cc(O)ccc21 [EM-652, (S)-3-(4-hydroxyphenyl)-4-methyl-2-(4-(2-(piperidin-1-yl)ethoxy)phenyl)-2H-chromen-7-ol]",Mean drug exposure of circulating acolbifene,[6],8.3 ng/mL
